Results from paper PMC12789660, “Mycobacterial respiratory chain enzymes and growth are inhibited by decylubiquinone” (Communications Biology, 2025).

Legend:
[1] = target: T1, QcrB subunit of CIII2 (CIII2CIV2 supercomplex) (Mycolicibacterium smegmatis, UniProt A0R052); experiment: O2 reduction rate, Clark-type oxygen electrode; turnover […] s^−[…] at […]; type: biochemical; set-up: gene MSMEG_4263; intact purified CIII2CIV2 supercomplex, C-terminally FLAG-tagged on QcrB; with QcrA (Rieske), QcrC and CIV subunits of the CIII2CIV2 supercomplex
[2] = target: T2, cytochrome bd-I (Mycolicibacterium smegmatis, UniProt A0QXA8); experiment: O2 reduction rate, Clark-type electrode; turnover at […]; type: biochemical
T2 construct: gene MSMEG_3233; purified cytochrome bd-I (cydAB, Strep-tagged on CydB) in DDM; with CydB
T2 sequence (A0QXA8 1-487): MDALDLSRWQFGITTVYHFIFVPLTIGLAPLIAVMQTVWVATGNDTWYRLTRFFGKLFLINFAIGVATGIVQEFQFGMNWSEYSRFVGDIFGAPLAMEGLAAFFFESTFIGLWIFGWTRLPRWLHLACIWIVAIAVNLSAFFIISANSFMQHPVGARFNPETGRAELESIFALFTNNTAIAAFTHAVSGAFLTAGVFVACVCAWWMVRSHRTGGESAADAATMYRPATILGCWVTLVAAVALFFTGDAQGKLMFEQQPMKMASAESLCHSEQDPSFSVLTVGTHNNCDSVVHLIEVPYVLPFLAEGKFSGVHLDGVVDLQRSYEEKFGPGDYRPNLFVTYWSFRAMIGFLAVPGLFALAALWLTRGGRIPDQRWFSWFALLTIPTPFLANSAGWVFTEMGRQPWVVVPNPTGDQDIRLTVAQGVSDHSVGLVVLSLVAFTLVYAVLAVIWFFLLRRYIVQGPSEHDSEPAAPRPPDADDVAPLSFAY
T2 sequence (A0QXA7 1-350 partner): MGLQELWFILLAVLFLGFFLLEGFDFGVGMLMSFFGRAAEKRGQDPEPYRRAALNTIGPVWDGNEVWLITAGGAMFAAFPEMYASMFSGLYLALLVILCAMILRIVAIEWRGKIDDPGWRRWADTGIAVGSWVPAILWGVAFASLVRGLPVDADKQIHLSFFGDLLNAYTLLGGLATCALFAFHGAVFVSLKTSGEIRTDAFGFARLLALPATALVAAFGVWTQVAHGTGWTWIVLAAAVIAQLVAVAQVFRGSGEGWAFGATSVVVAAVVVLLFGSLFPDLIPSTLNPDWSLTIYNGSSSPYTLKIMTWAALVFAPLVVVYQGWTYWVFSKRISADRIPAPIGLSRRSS

[3] = target: T1, QcrB subunit of CIII2 (CIII2CIV2 supercomplex); experiment: cryo-EM structure, […] Å; DCQ modeled in oxidized state at […] occupancy (shared with MQ); type: binding; set-up: gene MSMEG_4263; intact CIII2CIV2 supercomplex purified in GDN, C-terminally FLAG-tagged on QcrB; with QcrA (Rieske), QcrC and CIV subunits of the CIII2CIV2 supercomplex
[4] = target: T1, QcrB subunit of CIII2 (CIII2CIV2 supercomplex); experiment: DMNQH2 oxidation:O2 reduction activity, Clark-type oxygen electrode; type: biochemical; set-up: gene MSMEG_4263; intact purified CIII2CIV2 supercomplex, C-terminally FLAG-tagged on QcrB; with QcrA (Rieske), QcrC and CIV subunits of the CIII2CIV2 supercomplex
[5] = target: T3, QcrB subunit of CIII2 (CIII2CIV2 supercomplex), AAA variant (Mycolicibacterium smegmatis, UniProt A0R052, F153A/M305A/M337A); experiment: biochemical
T3 construct: gene MSMEG_4263

Which results are given for `Cc1c(C)c(O)c2ccccc2c1O` [DMNQH2]?
O2 reduction rate, Clark-type oxygen electrode; turnover 80 ± 10 s^-1 at 100 μM [1]: 80 ± 10 s⁻¹; O2 reduction rate, Clark-type electrode; turnover at 300 μM [2]: 18 ± 1 s⁻¹

For `CCCCCCCCCCC1=C(C)C(=O)C(OC)=C(OC)C1=O` [DCQ, decylubiquinone], which “cryo-EM structure, 2.5 Å; DCQ modeled in oxidized state at 50% occupancy (shared)” value [3] is on record?
The value was “The DCQ density is seen in the more distal Qo1b position, i.e., the same as that of the native MQ”.

With `CCCCCCCCCCc1c(C)c(O)c(OC)c(OC)c1O` [DCQH2] as the compound, how does the IC50 [4] read?
The IC50 was about 70 µM.

What about the IC50 [5] of the same compound?
The IC50 was about 130 µM.
